Literature values in patent US10111950B2, “Modified glycolipids and methods of making and using the same” (Vaccinex, Inc., priority 2013, dated 2018).

Test system: iNKT cells
Details: repeated stimulation; cited from earlier work

CCCCCCCCCCCCCCCCCCCCCCCCCC(=O)N[C@@H](CO[C@H]1O[C@H](CO)[C@H](O)[C@H](O)[C@H]1O)[C@H](O)[C@H](O)CCCCCCCCCCCCCC [αGalCer, α-galactosylceramide]
iNKT cell response to stimulation with free αGalCer: results in iNKT cell anergy
